The values below come from US9481900B2, “Polypeptides having oxidoreductase activity and their uses” (Purac Biochem B.V., priority 2009, dated 2016).

A short description of data set [1]: Solubility of FDCA in water. The format is physicochemical.
The nature of data set [2]: HMF oxidoreductase assay: FDCA formation in cell extract of P. putida_pJT'hmfH. The class given is biochemical. How it is done:
Cell extracts of wildtype C. basilensis HMF14 or P. putida S12 transformants expressing HMF oxidoreductase were prepared from 50-ml late exponential growth phase cultures using MM supplemented with either 12 mM succinate (C. basilensis HMF14, OD600≈1.5) or 20 mM glucose (P. putida S12, OD600≈4). The cultures were harvested by centrifugation and resuspended in 3 ml of assay buffer. Cells were disrupted by sonication, using either a Branson sonifier (micro tip at pulse mode, output set at 3 and percentage duty cycle set to 40%; 3 cycles of sonication: 45 s of pulsing and 15 s pause) or a Sonics Vibra-Cell (Sonics&Materials, USA) (5 mm tapered microtip; pulse mode set to 1 min (0.5 s pulse, 2 sec pause). After sonication, debris was removed by centrifuging at 8228×g for 3 min at 4° C. The supernatant was desalted using a PD10 gel filtration column (GE healthcare) and used as cell extract for HMF oxidoreductase assays. Protein concentration was measured using Bradford reagent (Sigma-Aldrich).
HMF oxidoreductase assays were performed in cell extracts of wildtype C. basilensis HMF14 or P. putida S12 transformants expressing the C. basilensis HMF14 HMF oxidoreductase. As a negative control, wildtype P. putida S12 or a C. basilensis HMF14 mutant was used that carried a transposon insertion in the hmfH gene. […]

A word on the solubility: it is how much of the substance goes into solution per volume. High values mean much dissolved substance, low ones little dissolved substance.

Converted amounts (≈) assume the structure as drawn.

`O=C(O)c1ccc(C(=O)O)o1` [FDCA, 2,5-Furan-dicarboxylic acid]: the solubility in data set [1] (aqueous buffer, pH 1.0) was approximately 1500 µg/mL (≈ 9.61 mM); in data set [1] (pH 0.5, aqueous buffer), approximately 400 µg/mL (≈ 2.56 mM).

B1: HmfH: 62 317 Da FAD-dependent GMC-family oxidoreductase of Cupriavidus basilensis HMF14, encoded by hmfH (protein, listed as Cupriavidus basilensis)
chain: MDTPRERFDYVIVGGGSAGCVLANRLSQDPAIRVALIEAGVDTPPDAVPAEILDSYPMPLFFGDRYIWPSLQARAVAGGRSKVYEQGRVMGGGSSINVQAANRGLPRDYDEWAASGASGWSWQDVLPYFRHLERDVDYGNSPLHGSHGPVPIRRILPQAWPPFCTEFAHAMGRSGLSALADQNAEFGDGWFPAAFSNLDDKRVSTAIAYLDADTRRRANLRIYAETTVRKLVVSGREARGVIAMRADGSRLALDAGEVIVSAGALQSPAILMRAGIGDAGALQALGIEVVADRPGVGRNLQDHPALTFCQFLAPQYRMPLSRRRASMTAARFSSGVPGGEASDMYLSSSTRAGWHALGNRLGLFFLWCNRPFSRGQVSLAGAQPDVPPMVELNLLDDERDLRRMVAGVRKLVQIVGASALHQHPGDFFPATFSPRVKALSRVSRGNVLLTELLGAVLDVSGPLRRSLIARFVTGGANLASLLTDESALEGFVRQSVFGVWHASGTCRMGAHADRSAVTDAAGRVHDVGRLRVIDASLMPRLPTANTNIPTIMLAEKIADTMQAERRAVRPASSEVAHPS
Regarding B1, the “substrate oxidation by the enzyme” value in data set [2] is listed as “ability to oxidize HMF-acid to furan-dicarboxylic acid (FDCA)”.
